Where no end group is shown, it is not given here.
Tests used:
mouse red blood cells = experiment: Hemolytic activity; format: cell-based; details: 200 μM; 8% mouse red blood cells, 1 h, 37°C
Method: RAW 264.7 cells (mouse macrophage cells) were maintained in high-glucose Dulbecco’s modified Eagle medium (DMEM) (Welgene, Daegu, South Korea) supplemented with 10% fetal bovine serum (FBS) (Gibco) and 1% penicillin at 37°C in humidified 5% CO2. Cells (2 × 10^5 cells well^−1) were seeded into DMEM supplemented with 10% FBS medium in a 96-well plate. The MTT assay was performed after culturing the cells in 96-well plates at a density of 2 × 10^5 cells well^−1, followed by treatment with serially diluted PN5, magainin 2, and melittin. After 24 h, the medium was discarded, and 100 μL DMEM and 10% FBS medium containing 0.5 mg mL^−1 MTT were added to each well. After 4 h of incubation, the medium was discarded and dimethyl sulfoxide was added to each well to solubilize the formazan. The optical densities at 570 and 650 nm (OD570 and OD650, respectively) of the treated cells were compared to those of control cells. The hemolytic activity of the peptides was evaluated as the release of hemoglobin from an 8% mRBC suspension. A 100-μL aliquot of the 8% mRBC suspension was added to the wells of a 96-well plate, and 100 μL of peptide solution in phosphate-buffered saline (PBS) was added at a final peptide concentration of 200 μM. After incubation for 1 h at 37°C with shaking (50 rpm), the suspensions were centrifuged at 1,000 × g for 5 min. The absorbance of the supernatant was measured at 414 nm using a Versa Max microplate reader (Molecular Devices). As a control, no hemolysis and complete hemolysis were determined in PBS and 0.1% Triton X-100, respectively. The degree of hemolysis was calculated using the following equation as described in reference: %hemolysis=[(A414withpeptide-A414withPBS)/(A414with0.1%TritonX-100-A414 with PBS)] × 100

S. Typhimurium KCTC 1926 = format: cell-based, Salmonella enterica serovar Typhimurium; details: microdilution, NB, 18 to 24 h, 37°C, three independent experiments
Method: (§1) Bacterial cells were cultured at 37°C in the appropriate culture media with shaking (180 rpm). Luria-Bertani broth (LB) (244620; BD Difco) was used for E. coli ATCC 25922, ASEC strains, and B. subtilis KCTC 2217. Nutrient broth (NB) (234000; BD Difco) was used for P. aeruginosa ATCC 27853, S. Typhimurium KCTC 1926, and A. baumannii KCTC 2508. Tryptic soy broth (TSB) (211825; BD Difco) was used for S. aureus ATCC 25923. Finally, brain heart infusion (BHI) (237500; BD Difco) was used for L. monocytogenes KCTC 3710. The antimicrobial activity of each peptide was determined using microdilution assays. To this end, 2-fold serial dilution series of each peptide (from 1 to 64 μM) were added to duplicate media with 10 mM sodium phosphate buffer (pH 7.4). Fifty microliters of the peptide and antibiotic solution was added to each well of a 96-well plate (32096, surface nontreatment; SPL Life Sciences). Then, 50 μL of 2 × 10^5 CFU mL^−1 of bacteria was added to each well, and the samples were incubated for 18 to 24 h without shaking at 37°C.

S. aureus ATCC 25923 = format: cell-based, Staphylococcus aureus; details: microdilution, TSB, 18 to 24 h, 37°C, three independent experiments
Method: as §1

[1] = test system: E. coli ATCC 25922 biofilm; details: 5 × 10^5 CFU mL^−1, 0.2% glucose, 24 h, 37°C, crystal violet A595, three independent experiments
Method: Crystal violet staining was performed to determine the degree of biofilm formation by the E. coli 25922, S. aureus 25923, and ASEC strains. E. coli 25922 and S. aureus 25923 were cultured overnight in LB and TSB media with aeration at 180 rpm, respectively. Bacterial suspensions with 0.2% glucose (5 × 10^5 CFU mL^−1) were added to a 96-well plate (30096, surface treatment; SPL Life Sciences) and incubated for 24 h at 37°C. The supernatant was removed and fixed with 100% methanol. Next, 100 μL of crystal violet was added to the plate and incubated to dye the cells for 1 h, followed by rinsing the cells three times with distilled water (dH2O). After the crystal violet was dissolved with 95% ethanol, the mass of biofilm formation at 595 nm was measured using a Versa Max microplate reader (Molecular Devices). The inhibitory effect of PN5 against biofilm formed by E. coli 25922, S. aureus 25923, and three MDR E. coli strains (ASEC 2, 16, and 18) were determined. These cells were cultured overnight in LB and TSB media. Bacterial suspensions (5 × 10^5 CFU mL^−1) containing 0.2% glucose were added to 96-well plates and PN5 was serially diluted to a final concentration of 32 μM. The minimal biofilm inhibitory concentration (MBIC) was determined in three independent experiments. The percentage of biofilm formation was measured using the equation (A595 of treated biofilm/A595 of untreated biofilm) × 100. Similarly, the MDR ASEC 1 to 19 strains were cultured overnight in LB medium and seeded into 96-well plates with medium containing 0.2% glucose at 5 × 10^5 CFU mL^−1 of the bacterial suspension. Biofilm staining was performed as described above. SYTO 9 (6 μM) fluorescence in LIVE/DEAD BacLight was used to visualize the degree of biofilm formation. […] After 24 h, the culture supernatant of the peptide and bacteria was discarded, and the pellet was fixed with 100% methanol. A fluorescence mixture of SYTO 9 and propidium iodide was then added to each well, and the fluorescence was evaluated with an EVOS FL color imaging system (Thermo Fisher Scientific) with a 4× objective ([22]).

[2] = 200 μg/mL^−1; previous study; cited from earlier work
Description: In this study, we confirmed that PN5 has antimicrobial activities against Gram-negative and Gram-positive bacteria, including MDR E. coli. The ASEC strains that were clinically isolated from patients, mentioned in Table S3 in the supplemental material, produced ESBL, which induces resistance to β-lactam antibiotics, and New Delhi metallo-β-lactamase (NDM), which hydrolyzes a class of carbapenems. […] The four PN peptides (PN5, PN7, PN8, and PN10) purified from pine ne ...

P. aeruginosa ATCC 27853 = format: cell-based, Pseudomonas aeruginosa; details: microdilution, NB, 18 to 24 h, 37°C, three independent experiments
Method: as §1

[3] = test system: L. monocytogenes KCTC 3710; format: cell-based, Listeria monocytogenes; details: microdilution, BHI, 18 to 24 h, 37°C, three independent experiments
Method: as §1

A. baumannii KCTC 2508 = format: cell-based, Acinetobacter baumannii; details: microdilution, NB, 18 to 24 h, 37°C, three independent experiments
Method: as §1

In the case of FKFLARTGKFL-NH2 [PN5], the hemolysis (mouse red blood cells) is reported as “did not induce hemolysis”, the MIC (S. Typhimurium KCTC 1926) is reported as 2 µM and the MIC (S. aureus ATCC 25923) is reported as 2 µM. For the same substance, the “MBIC50 (minimum inhibitory concentration resulting in at least 50% inhibition of biofilm formation)” value [1] was 16 (21.22) μM, the cytotoxicity [2] was “less than 20%” and the MIC (P. aeruginosa ATCC 27853) was 4 µM. It also gave an MIC [3] of 16 µM and an MIC (A. baumannii KCTC 2508) of 4 µM.

From publication PMC9603901, “Therapeutic Potential of Antimicrobial Peptide PN5 against Multidrug-Resistant E. coli and Anti-Inflammatory Activity in a Septic Mouse Model” (Microbiology Spectrum, 2022)
